Reference: PMC7522027 (Disease Models & Mechanisms, 2020)

Columns and labels:
caAlk2 = test: rescue of caAlk2 mRNA-induced developmental defects in zebrafish embryos; assay type: in vivo; settings: examined at 48 hpf
Experimental: The pCS2+ plasmid encoding caAlk2 with a glutamine to aspartic acid substitution at position 204 was kindly donated by Jeroen Bakkers ([Smith et al., 2009]). The DNA sequences of the inserts in plasmid constructs were verified. Both plasmids were digested with NotI and mRNA was generated with SP6 RNA polymerase using a mMessage mMachine kit (Ambion). The mRNA was purified through phenol/isoamylalcohol/chloroform extraction. Zebrafish embryos were injected into the yolk at the one-cell stage with ∼1 nl of either 50 ng/µl GFP mRNA or a cocktail containing 10 ng/µl caAlk2 and 50 ng/µl GFP mRNA. […] Next, embryos were selected for fluorescence at 24 hpf and examined at 48 hpf. The phenotypes were categorized into three groups: no head; head, no eyes; head and eyes. Finally, the bar graph was generated using Prism 8.3.0 for Windows (GraphPad, San Diego, CA, USA). The presented data are a combination of two repeats of the experiment.

[1] = system: BMP6-induced SMAD1/5 phosphorylation; test: BMP6-induced SMAD1/5 phosphorylation in HepG2 cells (immunoblot); assay type: cell-based, human; settings: HepG2, BMP6 50 ng/ml; higher concentrations
Experimental: For BMP stimulation, the HepG2 cells (∼50% confluency) were starved on serum-free medium for 6 h. Subsequently, prior to the addition of BMP ligands, the cells were treated with compound for 30 min. Next, the cells were stimulated with BMP2 (50 ng/ml) or BMP6 (50 ng/ml) for 45 min. The cells were then washed with PBS and lysed in Laemmli sample buffer for western blot analysis.
HepG2 or HEK 293T cells were lysed in Laemmli sample buffer. Proteins were separated by sodium dodecyl sulfate polyacrylamide gel electrophoresis (SDS-PAGE) and transferred onto […] polyvinylidene difluoride (PVDF) membrane (IPVH00010, Merck Millipore). Membranes were blocked using 5% non-fat dry milk in Tris-buffered saline with 0.1% Tween 20 (655204, Merck Millipore) and probed with the respective primary and secondary antibodies. The signal was detected using Clarity™ Western ECL Substrate (1705060, Bio-Rad) and ChemiDoc Imaging System (17001402, Bio-Rad). The antibodies used for immunoblotting were raised against the following proteins: phospho-SMAD1/5/8 ([Persson et al., 1998]; 1:1000), SMAD1 (Cell Signaling Technology, #6944; 1:1000), GAPDH (Merck Millipore, #G8795; 1:5000) and hemagglutinin (HA; Roche, #12CA5; 1:1000).

[2] = system: MEK and anaplastic lymphoma kinase (ALK) versus ALK serine/threonine kinases; test: kinase panel: sensitivity of control kinases relative to ALK serine/threonine kinases; assay type: biochemical, human; settings: ratio of IC50 values
Experimental: IC50 values were calculated using Prism 5.04 for Windows (GraphPad, San Diego, CA, USA; www.graphpad.com). The mathematical model used was ‘Sigmoidal response (variable slope)’ with parameters ‘top’ fixed at 100% and ‘bottom’ at 0%. The fitting method used was a least-squares fit.

CC(=O)C1=C(O)C=C2Oc3c(C(N)=O)c(O)cc(O)c3[C@]2(C)C1=O [cercosporamide, Cercosporamide]
caAlk2-injected embryos that developed a head with eyes (caAlk2; 100 nM from 2 hpf onwards): 58%
caAlk2-injected embryos that developed a head with eyes (caAlk2; 200 nM from 2 hpf onwards): 86%
effect on BMP6-induced SMAD1/5 phosphorylation [1]: only minor inhibition
MEK and tyrosine kinase ALK less sensitive than the ALK serine/threonine kinases [2]: 7- to 67 fold
